{"source": "paper PMC4520234", "about": "(Journal of medicinal chemistry, 2015)", "key": {"mice [1]": {"test_system": "mice", "assay": "In vivo tolerability in mice, intraperitoneal injection"}, "[2]": {"conditions": "dogs, cited from earlier work"}, "mice [3]": {"test_system": "mice", "conditions": "cited from earlier work"}, "[4]": {"assay": "Zinc binding by EGTA titration", "conditions": "EGTA 7.3 mM, PAC-1 derivative 100 μM, Zn(OTf)2 titration, ex. 410 nm, em. 475 nm"}, "[5]": {"assay": "Pharmacokinetics in mice, 25 mg/kg IV injection or oral gavage", "type": "in vivo, mouse", "conditions": "25 mg/kg IV (n = 2)"}, "[6]": {"conditions": "i.p. injection 200 mg/kg, graded mild, moderate, severe, or lethal"}}, "data": [{"molecule": "C=CCc1cccc(/C=N/NC(=O)CN2CCN(C(=O)c3ccc(F)cc3)CC2)c1O", "note": "[Compound 7, N′-[2-Hydroxy-3-(2-propenyl)phenylmethylene]-4-(4-fluorobenzoyl)-1-piperazineacetohydrazide]", "values": [{"measurement": "mouse toxicity IP 200 mg/kg", "setting": "mice [1]; [6]", "value": "moderate"}]}, {"molecule": "O=C(CN1CCN(C(=O)c2ccc(C(F)(F)F)cc2)CC1)N/N=C/c1cc(F)ccc1O", "note": "[Compound 27, N′-(5-Fluoro-2-hydroxyphenylmethylene)-4-[4-(trifluoromethyl)benzoyl]-1-piperazineacetohydrazide]", "values": [{"measurement": "mouse toxicity IP 200 mg/kg", "setting": "mice [1]; [6]", "value": "moderate"}]}, {"molecule": "C=CCc1cc(F)cc(/C=N/NC(=O)CN2CCN(C(=O)c3ccccc3)CC2)c1O", "note": "[Compound 30, N′-[5-Fluoro-2-hydroxy-3-(2-propenyl)phenylmethylene]-4-benzoyl-1-piperazineacetohydrazide]", "values": [{"measurement": "mouse toxicity IP 200 mg/kg", "setting": "mice [1]; [6]", "value": "moderate"}]}, {"molecule": "C=CCc1cc(F)cc(/C=N/NC(=O)CN2CCN(C(=O)c3ccc(F)cc3)CC2)c1O", "note": "[Compound 34, N′-[5-Fluoro-2-hydroxy-3-(2-propenyl)phenylmethylene]-4-(4-fluorobenzoyl)-1-piperazineacetohydrazide]", "values": [{"measurement": "mouse toxicity IP 200 mg/kg", "setting": "mice [1]; [6]", "value": "severe"}]}, {"molecule": "CCCc1cc(F)cc(/C=N/NC(=O)CN2CCN(C(=O)c3ccc(F)cc3)CC2)c1O", "note": "[Compound 43, N′-(5-Fluoro-2-hydroxy-3-propylphenylmethylene)-4-(4-fluorobenzoyl)-1-piperazineacetohydrazide]", "values": [{"measurement": "mouse toxicity IP 200 mg/kg", "setting": "mice [1]; [6]", "value": "severe"}]}, {"molecule": "C=CCc1cccc(/C=N/NC(=O)CN2CCN(Cc3ccccc3)CC2)c1O", "note": "[PAC-1, Procaspase-Activating Compound 1]", "values": [{"measurement": "in vivo half-life", "setting": "[2]; IV administration", "value": "2.1 ± 0.3", "unit": "h"}, {"measurement": "serum concentration achieved with few adverse events", "setting": "[2]", "value": "approximately 10 μM"}, {"measurement": "mouse toxicity IP 200 mg/kg", "setting": "mice [1]; mouse, in vivo, ip, 200 mg/kg", "value": "severe"}, {"measurement": "serum concentration achieved with few adverse events", "setting": "mice [3]", "value": "approximately 10 μM"}, {"measurement": "maximum tolerated dose", "setting": "mice [3]; intraperitoneal injection", "value": 200, "unit": "mg/kg"}]}, {"molecule": "O=C(CN1CCN(Cc2ccccc2)CC1)N/N=C/c1ccccc1", "note": "[PAC-1a]", "values": [{"measurement": "Zn^2+ Kd", "setting": "[4]", "value": "does not bind zinc"}]}, {"molecule": "C=CCc1cccc(/C=N/NC(=O)CN2CCN(Cc3ccc(S(N)(=O)=O)cc3)CC2)c1O", "note": "[S-PAC-1]", "values": [{"measurement": "time post-treatment up to which compound is detectable in serum", "setting": "[5]", "value": 6, "unit": "h"}]}]}
